Measurements reported in publication PMC5177629, “Selective Estrogen Receptor Modulators: Cannabinoid Receptor Inverse Agonists with Differential CB1 and CB2 Selectivity” (Frontiers in Pharmacology, 2016).
Like-named read-outs stand apart in the source and are kept apart here.

Experiments:
[1] = target: T1, human cannabinoid type-2 receptors (hCB2) (Homo sapiens, UniProt P34972); assay: Antagonism of CP-55,940 inhibition of adenylyl cyclase, intact CHO-hCB2 cells; format: cell-based; details: for IMAX of CP-55,940 after pre-incubation with the drug / type of antagonism at hCB2Rs: CHO-hCB2 cells; for IMAX of CP-55,940 after pre-incubation with the drug: pre-incubation 30 min: OSP, NAF 10 μM, RAL, BAZ 2 μM, AM-630 1 μM; for type of antagonism at hCB2Rs: CP-55,940 inhibition of adenylyl cyclase
T1 construct: expressed in transfected cells; host or cells: CHO cells (CHO-hCB2), membranes or intact cells
T1 sequence (P34972 whole entry): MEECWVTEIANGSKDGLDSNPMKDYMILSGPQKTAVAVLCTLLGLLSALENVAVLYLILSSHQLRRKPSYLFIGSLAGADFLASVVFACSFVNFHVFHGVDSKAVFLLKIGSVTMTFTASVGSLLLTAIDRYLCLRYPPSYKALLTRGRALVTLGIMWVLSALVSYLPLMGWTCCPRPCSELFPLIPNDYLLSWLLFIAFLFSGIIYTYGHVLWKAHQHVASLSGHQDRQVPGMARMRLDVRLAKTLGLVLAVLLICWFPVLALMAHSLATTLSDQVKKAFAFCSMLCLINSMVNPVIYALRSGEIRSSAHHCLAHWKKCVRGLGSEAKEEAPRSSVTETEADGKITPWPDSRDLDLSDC
Experimental: (§1) Briefly, cells cultured between passages 4 and 15 were seeded into 24-well plates at a concentration of 6.5 million cells per plate and incubated overnight in a humidified incubator maintained at 37°C and 5% CO2. Growth media was removed the next day and replaced with media containing […] [^3H]adenine, 0.9g/L NaCl, and 0.5 mM isobutyl-methyl-xanthine (IBMX) for 2–3 h. Radioactive media was then removed and each well treated with 0.5 ml of varying concentrations of SERM compounds in a Krebs-Ringer-HEPES solution (10 mM HEPES, 110 mM NaCl, 25 mM Glucose, 55 mM Sucrose, 5 mM KCl, 1 mM MgCl2, 1.8 mM CaCl2, pH 7.4) containing 0.5 mM IBMX and 10 μM forskolin. Plates were then floated in a 37°C water bath for 15 min before reactions were terminated by addition of 50 μL of 2.2 N HCl to each well.
Reactions were then terminated by adding 50 μL of 2.2 N HCl to each well. [^3H]cAMP was isolated using alumina column chromatography and radioactivity quantified following addition of 10 mls of scintiverseTM BD cocktail scintillation fluid (Fisher Scientific, Pittsburg, PA, USA) by liquid scintillation spectrophotometry (Tri Carb 2100 TR Liquid Scintillation Analyzer, Packard Instrument Company, Meriden, CT, USA).
(§2) Statistical analyses were conducted by utilizing GraphPad Prism v6.0g (GraphPad Software, Inc.; San Diego, CA, USA). IC50 values from competition receptor binding curves were derived by non-linear regression. […] Non-linear regression analysis of concentration-effect curves was also used to determine potency (ED50 or IC50) and efficacy (Emax or Imax) for modulation of GTPγS and adenylyl cyclase activity, respectively. All IC50, EC50, Ki, and Kb values were converted to pEC50, pIC50, pKi, and pKb values in order to permit use of parametric statistical analyses. For all experiments comparing three or more values, an one-way ANOVA was employed, followed by Dunnett’s or Tukey’s post hoc tests. For comparisons of two values, an unpaired t-test was utilized. To determine significant radioligand displacement or modulation of G-protein activity compared to basal levels, a one-sample t-test was employed.
IC50 and Kb values were converted to pIC50 and pKb values (pIC50 = -Log[IC50] or pKb = -Log[Kb], respectively) to allow use of parametric statistics for comparison.

[2] = target: T1, human cannabinoid type-2 receptors (hCB2); assay: [35S]GTPγS binding, CHO-hCB2 membranes; format: biochemical; details: for IMAX, GTPγS Binding (% Basal) CHO-hCB2: maximal reduction of basal G-protein activity
Experimental: In short, pellets were thawed on ice, combined in a 40 ml glass Dounce homogenizer and homogenized in 20 ml of cold buffer (50 mM HEPES at pH 7.4, 3 mM MgCl2, and 1 mM EGTA) using 10 strokes. Homogenates were then centrifuged at 40,000 × g for 10 min at 4°C. After discarding the supernatant, pellets were homogenized and centrifuged twice more. Final pellets were re-suspended in ice-cold 50 mM HEPES, pH 7.4, aliquoted and stored at -80°C for future use. Protein concentration was determined the same day, prior to freezing, using BCA^TM Protein Assay (Thermo Fisher Scientific, Waltham, MA, USA).
Non-specific binding was defined by radioactivity remaining in the presence of 10 μM of non-radioactive GTPγS. All reactions were incubated for 30 min at 30°C, terminated by filtration through Whatman GF/B glass fiber filters (Brandel, Inc.) and followed by four 4 ml washes of ice cold filtration buffer (50 mM HEPES, pH 7.4) containing 0.1% bovine serum albumin. Filter punches of individual samples were placed in scintillation vials containing 4 mls of ScintiverseTM BD cocktail scintillation fluid (Fisher Scientific, Pittsburg, PA, USA). Final counts were determined using liquid scintillation spectrophotometry (Tri Carb 2100 TR Liquid Scintillation Analyzer, Packard Instrument Company, Meriden, CT, USA) after overnight incubation.
as §2
CBRs are coupled to Gi/Go type G-proteins. Therefore, binding of agonists to CBRs leads to G-protein activation, antagonists produce no effect, and inverse agonists reduce basal G-protein activity produced by constitutively active receptors. SERMs were screened by examining the ability of a single receptor saturating concentration (10 μM) to modulate G-protein activity in membranes prepared from CHO-hCB1 and CHO-hCB2 cells. G-protein activation was quantified using employing [^35S]GTPγS, a non-hydrolyzable analog of GTP, that irreversibly binds to the G-proteins when activated.

[3] = target: T1, human cannabinoid type-2 receptors (hCB2); assay: Adenylyl cyclase assay (forskolin-stimulated cAMP), intact CHO-hCB2 cells; format: cell-based; details: for Emax: elevation of cAMP, read-out: EMAX, Intracellular [3H]cAMP; for EC50: increase of cAMP, 10 μM forskolin, read-out: EC50, Intracellular [3H]cAMP
Experimental: as §1, §2
To provide a second measure of intrinsic activity, the ability of SERMs to modulate intracellular levels of cAMP in intact cells was examined (Figure 6). CBRs couple to Gi/Go-proteins, and thus cannabinoid agonists inhibit activity of the downstream intracellular effector adenylyl cyclase, reducing intracellular cAMP levels.

[4] = reduction of basal G-protein activity, CHO-hCB2 membranes, read-out: IC50, GTPγS Binding CHO-hCB2

| SMILES | IMAX of CP-55,940 after pre-incubation with the drug [1] | type of antagonism at hCB2Rs [1] | Kb ([1]; intact CHO-hCB2 cells, mean ± SEM, read-out: pKb, CHO-hCB2 (converted)) [nM] | IC50 ([2]; CHO-hCB2 membranes, mean ± SEM, read-out: pIC50, GTPγS Binding CHO-hCB2 (converted)) [nM] | IMAX, GTPγS Binding (% Basal) CHO-hCB2 [2] | Kb [1] [nM] | reduction of G-protein activity, hCB2Rs ([2]; CHO-hCB2 membranes, 10 μM) [%] | IC50 [2, 4] [nM] | Emax [3] [%] | EC50 [3] [nM] | Kb ([1]; read-out: Kb (antagonist dissociation constant), CHO-hCB2) [nM] |
| --- | --- | --- | --- | --- | --- | --- | --- | --- | --- | --- | --- |
| COc1ccc2c(c1)CCC(c1ccccc1)=C2c1ccc(OCCN2CCCC2)cc1 [NAF, nafoxidine] | 32.3 ± 2.3% | surmountable antagonists | 337 | 344 | 38.7 ± 1.2^a,b,∗∗ % |  |  |  |  |  |  |
| OCCOc1ccc(/C(=C(/CCCl)c2ccccc2)c2ccccc2)cc1 [OSP, ospemifene] | 31.7 ± 2.3% | surmountable antagonists |  |  | 39.7 ± 2.4^a,∗∗ % | 1260 | ~30 | 558 | 279 ± 17 | 1440 |  |
| O=C(c1ccc(OCCN2CCCCC2)cc1)c1c(-c2ccc(O)cc2)sc2cc(O)ccc12 [RAL, raloxifene] | 33.0 ± 1.3% | surmountable antagonists |  |  | 34.3 ± 2.2^b,∗∗ % |  |  | 87.1 | 234 ± 21 | 873 | 66.5 |
| Cc1c(-c2ccc(O)cc2)n(Cc2ccc(OCCN3CCCCCC3)cc2)c2ccc(O)cc12 [BAZ, bazedoxifene] | 28.8 ± 3.0^∗∗ % | insurmountable antagonist |  |  | 34.0 ± 1.0^b,∗ % |  |  | 71.6 | 352 ± 14 | 1980 |  |
